# Source: patent US20050220888A1, “Controlled release compositions and methods for using same” (priority 2002, published 2005)
# Counter-ions that a name gives are not always drawn.
# How the values were obtained:
# [1] = test system: IL-6 production by HUVEC cells; test: Inhibition of histamine-induced IL-6 mRNA production (RT-PCR against HPRT); assay type: cell-based, human; settings: 5 hours
# Source text: Various assays also exist for identifying a highest pharmacological activity enantiomer of a given pharmacologically active agent. Where the pharmaceutical activity is as a histamine antagonist, IL-6 production by HUVEC cells is a cell biomarker of histamine activity and is used to assess the relative antagonistic activity of prospective H1 blockers. IL-6 production in human endothelial cells is known to be induced by histamine due to H1 and H2 receptor binding with H1 the dominant effect. Delneste, et al. As H1 antagonism is directly linked to reduced emesis during motion sickness treatment, this assay serves as an in vitro methodology for the selection of potential motion sickness and antihistamine candidates. Realtime RT-PCR analysis of IL-6 mRNA synthesis in HUVEC cells stimulated with histamine is employed as an in vitro assay for the analysis of the relative efficacy of potential antihistaminic agents.
# A preferred assay for measuring activity of phenothiazine and other histamine antagonists comprises: providing at least a first viable culture and a second viable culture comprising Huvec cells; exposing the first viable culture to a first combination comprising histamine and the (+)-enantiomer of the phenothiazine under conditions effective to inhibit IL-6 mRNA expression; exposing the second viable culture to a combination comprising histamine and the (−)-enantiomer of the phenothiazine under conditions effective to inhibit IL-6 mRNA expression; measuring inhibition of IL-6 mRNA expression induced by the first combination and the second combination after at least four hours to identify a (+)-enantiomer inhibition value and a (−)-enantiomer inhibition value; and selecting as the highest pharmacological activity enantiomer the enantiomer having the greater inhibition value selected from the group consisting of the (+)-enantiomer inhibition value and the (−)-enantiomer inhibition value.
# Huvec cells were plated and grown to confluence in 6-well plates. […] Total RNA was isolated using Tri-reagent and subjected to reverse transcription polymerase chain reaction (RT-PCR) analysis of IL-6 production using semiquantitative analysis against HPRT expression (control gene).
# The procedures of Example 3 were repeated using the (+)-enantiomer (#2) and the (−)-enantiomer (#1) of EPZ at 10^−5 molar and 10^−6 molar, and TPZ at 10^−5 molar.
# [2] = encapsulated in a variety of shell materials, administered to beagles; cited from earlier work
# L929 lung fibroblast = settings: shown by previous studies; cited from earlier work
compound,measurement,setting,value
"CC(CN1c2ccccc2Sc2ccccc21)N(C)C (racemic) [Promethazine, promethazine hydrochloride]",inhibition of histamine stimulation of IL-6 production,"[1]; 10^−5 M with Histamine 10^−4 M, relative to cells stimulated only with histamine",50%
same,nasal irritation,[2],severe nasal irritation was observed
"CC(CN1c2ccccc2Sc2ccccc21)N(C)C.Cl (single isomer, unassigned; (+)) [(+) enantiomer, (+)-Promethazine hydrochloride]",IL-6 production reduced to % of the histamine stimulated cell,[1]; 10^−5 M with Histamine 10^−4 M,90%
"CC(CN1c2ccccc2Sc2ccccc21)N(C)C.Cl (single isomer, unassigned; (-)) [(−) enantiomer, (−)-Promethazine hydrochloride]",reduction in IL-6 production,[1]; 10^−5 M with Histamine 10^−4 M,50%
C=C(C)C(=O)OCC(O)COc1ccc(C(C)(C)c2ccc(OCC(O)COC(=O)C(=C)C)cc2)cc1 (stereo not drawn) [BisGMA],cytotoxicity of control in this assay,L929 lung fibroblast,significantly cytotoxic
NCCc1c[nH]cn1 [Histamine],increase in IL-6 mRNA production,"[1]; Histamine alone 10^−4 M, versus endogenous production",50%
